These results are taken from the supplement of paper PMC10627819.

Holding throughout (assay): Bliss interaction score (quartile over a dose matrix) (fitness difference); higher = more antagonism (negative = synergy)
In one test the test system is S. pneumoniae D39V. Summed up:
(§1)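 The Bliss score takes observed fitness and subtracts the expected fitness, calculated as a product of single-drug fitness values. Those single-drug values were inferred from the combination data. Fitness is OD595 at entry into stationary phase divided by the plate's robust no-drug mean, capped at 1, and the score is summarised by quartiles across technical, biological and donor/recipient replicates.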

The subject of the next test is B. subtilis 168. Summed up:
as §1

The subject of a further test is S. aureus Newman. A digest of the protocol:
as §1

A further test relates to S. aureus DSM 20231. A digest of the protocol: as §1
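Further: first quartile when negative (synergy) and third quartile when positive (antagonism).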

In the case of `CC(=O)OC[C@H]1O[C@@H]([S-])[C@H](OC(C)=O)[C@@H](OC(C)=O)[C@@H]1OC(C)=O.CCP(CC)CC.[Au+]` [Auranofin] + CCC(C)C1C(=O)NC(=C)C(=O)NC(C(=O)NC(CSCC(C(=O)N1)NC(=O)/C(=C/C)/NC(=O)C(C(C)CC)N)C(=O)NC2C(SCC(NC(=O)CNC(=O)C3CCCN3C2=O)C(=O)NC(CCCCN)C(=O)NC4C(SCC(NC(=O)CNC(=O)C(NC(=O)C(NC(=O)C(NC(=O)CNC4=O)C)CC(C)C)CCSC)C(=O)NC(CC(=O)N)C(=O)NC(CCSC)C(=O)NC(CCCCN)C(=O)NC5C(SCC6C(=O)NC(C(=O)NC(CSC(C(C(=O)N6)NC(=O)C(NC5=O)C)C)C(=O)NC(CO)C(=O)NC(C(C)CC)C(=O)NC(CC7=CN=CN7)C(=O)NC(C(C)C)C(=O)NC(=C)C(=O)NC(CCCCN)C(=O)O)CC8=CN=CN8)C)C)C)CC(C)C [Nisin], the Bliss interaction score is -0.0798 in the test with S. pneumoniae D39V (main component drawn), -0.0321 with B. subtilis 168 (main component drawn), 0.0274 with S. aureus Newman (main component drawn) and -0.0361 in the test on S. aureus DSM 20231 (main component drawn).
On to `O=C(O[C@@H]1Cc2c(O)cc(O)cc2O[C@@H]1c1cc(O)c(O)c(O)c1)c1cc(O)c(O)c(O)c1` [EGCG] + CO[C@@]12[C@H](COC(N)=O)C3=C(C(=O)C(C)=C(N)C3=O)N1C[C@@H]1N[C@@H]12 [MitomycinC], for which the Bliss interaction score is 0.0987 in the test on S. pneumoniae D39V, -0.0639 in the test on B. subtilis 168, 0.051 in the test with S. aureus Newman and -0.0345 with S. aureus DSM 20231.
With `N[C@@H]1CONC1=O` [CycloserineD] + COc1cc(Cc2cnc(N)nc2N)cc(OC)c1OC [Trimethoprim], the Bliss interaction score was 0.0932 in the test with S. pneumoniae D39V, 0.0782 in the test on B. subtilis 168, -0.067 in the test with S. aureus Newman and -0.0585 in the test with S. aureus DSM 20231.
For `C/C(=C\C(=O)OCCCCCCCCC(=O)O)C[C@@H]1OC[C@H](C[C@@H]2O[C@H]2[C@@H](C)[C@H](C)O)[C@@H](O)[C@H]1O` [Pseudomonic acid] + Oc1cc(Cl)ccc1Oc1ccc(Cl)cc1Cl [Triclosan], the Bliss interaction score was 0.0696 in the test with S. pneumoniae D39V, -0.0255 in the test on B. subtilis 168, -0.0174 with S. aureus Newman and -0.0069 in the test on S. aureus DSM 20231.
As for `CC(=O)O[C@H]1C[C@@]2(C)[C@@H](C[C@@H](O)[C@H]3[C@@]4(C)CC[C@@H](O)[C@@H](C)[C@@H]4CC[C@@]32C)/C1=C(\CCC=C(C)C)C(=O)O` [Fusidic acid] + CCC[C@@H]1C[C@@H](C(=O)N[C@@H]([C@H]2O[C@H](SC)[C@H](O)[C@@H](O)[C@H]2O)[C@@H](C)O)N(C)C1 [Lincomycin], the Bliss interaction score was -0.0651 in the test on S. pneumoniae D39V, 0.0915 in the test on B. subtilis 168, -0.0595 with S. aureus Newman and -0.0572 in the test with S. aureus DSM 20231.
With `CC(=O)O[C@H]1C[C@@]2(C)[C@@H](C[C@@H](O)[C@H]3[C@@]4(C)CC[C@@H](O)[C@@H](C)[C@@H]4CC[C@@]32C)/C1=C(\CCC=C(C)C)C(=O)O` [Fusidic acid] + CN(N=O)C(=O)N[C@@H](C=O)[C@@H](O)[C@H](O)[C@H](O)CO [Streptozotocin], the Bliss interaction score is 0.0486 in the test with S. pneumoniae D39V, 0.0745 in the test with B. subtilis 168, -0.0145 with S. aureus Newman and -0.0166 with S. aureus DSM 20231.
Regarding `CC(=O)O[C@H]1C[C@@]2(C)[C@@H](C[C@@H](O)[C@H]3[C@@]4(C)CC[C@@H](O)[C@@H](C)[C@@H]4CC[C@@]32C)/C1=C(\CCC=C(C)C)C(=O)O` [Fusidic acid] + CN1C2=CC=CC=C2N=C3C1=CC=CC3=O [Pyocyanin], the Bliss interaction score in the test with S. pneumoniae D39V was determined as 0.0648; in the test on B. subtilis 168 it was 0.0385; with S. aureus Newman, 0.0295; with S. aureus DSM 20231 it was 0.0421.
Take `COc1c(N2C[C@@H]3CCCN[C@@H]3C2)c(F)cc2c(=O)c(C(=O)O)cn(C3CC3)c12` [Moxifloxacin] + Oc1cc(Cl)ccc1Oc1ccc(Cl)cc1Cl [Triclosan]: the Bliss interaction score in the test with S. pneumoniae D39V was 0.0747; with B. subtilis 168, 0.0151; with S. aureus Newman it was -0.038; with S. aureus DSM 20231, -0.0397.
As to `CC(=O)O[C@H]1C[C@@]2(C)[C@@H](C[C@@H](O)[C@H]3[C@@]4(C)CC[C@@H](O)[C@@H](C)[C@@H]4CC[C@@]32C)/C1=C(\CCC=C(C)C)C(=O)O` [Fusidic acid] + C[C@@H](O)[C@H]1C(=O)N2C(C(=O)O)=C(SCCNC=N)C[C@H]12 [Imipenem], the Bliss interaction score was 0.0477 in the test on S. pneumoniae D39V, 0.138 in the test with B. subtilis 168, 0.0214 with S. aureus Newman and 0.0208 in the test with S. aureus DSM 20231.
Consider `CC(=O)O[C@H]1C[C@@]2(C)[C@@H](C[C@@H](O)[C@H]3[C@@]4(C)CC[C@@H](O)[C@@H](C)[C@@H]4CC[C@@]32C)/C1=C(\CCC=C(C)C)C(=O)O` [Fusidic acid] + CO[C@@H]1[C@@H](OC(N)=O)[C@@H](O)[C@H](Oc2ccc3c(O)c(NC(=O)c4ccc(O)c(CC=C(C)C)c4)c(=O)oc3c2C)OC1(C)C [Novobiocin], for which the Bliss interaction score was -0.153 in the test on S. pneumoniae D39V, 0.0723 in the test on B. subtilis 168, 0.0521 in the test with S. aureus Newman and 0.0249 with S. aureus DSM 20231.
On to `CCC[C@@H]1C[C@@H](C(=O)N[C@@H]([C@H]2O[C@H](SC)[C@H](O)[C@@H](O)[C@H]2O)[C@@H](C)O)N(C)C1` [Lincomycin] + Oc1cc(Cl)ccc1Oc1ccc(Cl)cc1Cl [Triclosan], for which the Bliss interaction score with S. pneumoniae D39V is -0.119; in the test on B. subtilis 168 it was -0.0218; in the test with S. aureus Newman it was 0.0423; in the test on S. aureus DSM 20231, -0.224.
Regarding `COc1c(N2C[C@@H]3CCCN[C@@H]3C2)c(F)cc2c(=O)c(C(=O)O)cn(C3CC3)c12` [Moxifloxacin] + CC1(C)S[C@@H]2[C@H](NC(=O)Cc3ccccc3)C(=O)N2[C@H]1C(=O)O [PenicillinG], the Bliss interaction score in the test with S. pneumoniae D39V is 0.0895; with B. subtilis 168, 0.0377; with S. aureus Newman, -0.0783; with S. aureus DSM 20231, 0.0629.
`CC(=O)OC[C@H]1O[C@@H]([S-])[C@H](OC(C)=O)[C@@H](OC(C)=O)[C@@H]1OC(C)=O.CCP(CC)CC.[Au+]` [Auranofin] + CN1C2=CC=CC=C2N=C3C1=CC=CC3=O [Pyocyanin]: the Bliss interaction score was 0.0818 in the test with S. pneumoniae D39V, -0.0273 with B. subtilis 168, -0.158 in the test with S. aureus Newman and 0.0747 with S. aureus DSM 20231.
For `O=C(N[C@H](CO)[C@H](O)c1ccc([N+](=O)[O-])cc1)C(Cl)Cl` [Chloramphenicol] + Oc1cc(Cl)ccc1Oc1ccc(Cl)cc1Cl [Triclosan] the same measures were 0.0444, -0.0443, 0.0302 and -0.0764.
With `N[C@@H]1CONC1=O` [CycloserineD] + CN1C2=CC=CC=C2N=C3C1=CC=CC3=O [Pyocyanin], the Bliss interaction score with S. pneumoniae D39V is 0.201; in the test with B. subtilis 168, -0.0572; with S. aureus Newman it was -0.0546; with S. aureus DSM 20231, 0.0676.
